The source of these data is ChEMBL document CHEMBL1201862, “PubChem BioAssay data set” (2004).

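All cell lines were grown in 96-well plates and treated with compound for 48 hours. At the GI50, growth is halved.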 The source made the active and inactive calls. Rule as the data show it: active = GI50 up to about 1.1 µM and inactive = higher.

Among the test systems are CAKI-1; EKVX; HCT-15; HT-29; KM-20L2; Malme-3M; NCI-H226; NCI-H23; NCI-H460; OVCAR-4; OVCAR-5; OVCAR-8; SF-295; SK-MEL-28; SNB-19; SR; UACC-62; LXFL 529; DU-145; Hs-578T.
Holding throughout (assay): growth of human tumour cells (NCI), 48 h

In the case of `Cc1cnc2ccc(C)c([N+](=O)[O-])c2c1NCCCN(C)C`, the GI50 with CAKI-1 is > 100 µM (inactive); in the experiment on EKVX it was > 100 µM (inactive); in the experiment on HCT-15, over 100 µM; in the experiment with HT-29 it was > 100 µM (inactive); with KM-20L2, 91.6 µM (inactive); in the experiment on Malme-3M, > 100 µM (inactive). In addition, the GI50 with NCI-H226 was 50 µM (inactive); in the experiment on NCI-H23, > 100 µM (inactive); with NCI-H460, > 100 µM (inactive); in the experiment on OVCAR-4 it was > 100 µM (inactive); with OVCAR-5, > 100 µM (inactive); with OVCAR-8 it was > 100 µM (inactive). Besides, the GI50 in the experiment with SF-295, with SK-MEL-28, with SNB-19 and with SR was > 100 µM (inactive) throughout.
As to `CCSc1nc2sc(C)c(C)c2c(=O)n1-c1ccc(C(=O)O)cc1`, the GI50 is > 100 µM (inactive) in the experiment with CAKI-1; 54 µM (inactive) with EKVX; 39.9 µM in the experiment on HCT-15; 61 µM (inactive) in the experiment with HT-29; > 100 µM (inactive) with KM-20L2; > 100 µM (inactive) in the experiment with Malme-3M. Also, the GI50 in the experiment with NCI-H226 is 19.8 µM (inactive); in the experiment with NCI-H23 it was 38.3 µM (inactive); with NCI-H460, 60.1 µM (inactive); in the experiment on OVCAR-4, 71.8 µM (inactive); in the experiment with OVCAR-5 it was > 100 µM (inactive); in the experiment with OVCAR-8, 72.4 µM (inactive). The GI50 was 40.9 µM (inactive) with SF-295; 54.5 µM (inactive) in the experiment on SK-MEL-28; 31.1 µM (inactive) in the experiment on SNB-19; 41.4 µM (inactive) with SR; > 100 µM (inactive) in the experiment on UACC-62.
As for `CC1=C(C(=O)Nc2ccc([N+](=O)[O-])cc2)C(c2ccccc2O)C(C(=O)Nc2ccc([N+](=O)[O-])cc2)=C(C)N1`, the GI50 with CAKI-1 is 21.4 µM (inactive); with EKVX, 23.1 µM (inactive); in the experiment on HT-29 it was 28.4 µM (inactive); with KM-20L2, 14.5 µM (inactive); in the experiment with LXFL 529, 19.1 µM (inactive); in the experiment with Malme-3M, 21.8 µM (inactive). In addition, the GI50 in the experiment with NCI-H226 is 16.6 µM (inactive); in the experiment on NCI-H23, 18.6 µM (inactive); in the experiment on NCI-H460 it was 21.4 µM (inactive); in the experiment with OVCAR-4 it was 23.7 µM (inactive); in the experiment on OVCAR-5 it was 16 µM (inactive); in the experiment with OVCAR-8, 28.2 µM (inactive). In addition, the GI50 with SF-295 was 29.6 µM (inactive); in the experiment on SK-MEL-28, 21.6 µM (inactive); in the experiment with SNB-19, 37.2 µM (inactive).
Turning to `Cc1cc(N(CCC#N)CCC#N)ccc1/N=N/c1ccccc1[N+](=O)[O-]`, the GI50 is > 100 µM (inactive) with CAKI-1; > 100 µM (inactive) in the experiment on EKVX; over 100 µM in the experiment on HCT-15; > 100 µM (inactive) with HT-29; > 100 µM (inactive) in the experiment on LXFL 529; > 100 µM (inactive) with Malme-3M. Also, the GI50 in the experiment on NCI-H226, in the experiment with NCI-H23, with OVCAR-4, in the experiment with OVCAR-5, with OVCAR-8 and in the experiment with SF-295 was > 100 µM (inactive) each time. Besides, the GI50 with SK-MEL-28 and with UACC-62 was > 100 µM (inactive) throughout.
`COc1cc([C@@H]2c3cc4c(cc3[C@@H](NCc3ccc(C#N)cc3)C3COC(=O)[C@@H]32)OCO4)cc(OC)c1O` (stereo partly specified): the GI50 with CAKI-1 is 1.26 µM (inactive); with EKVX, 1.98 µM (inactive); in the experiment with HCT-15, 1.16 µM; with HT-29 it was 1.19 µM (inactive); with KM-20L2 it was 1.08 µM (active); with LXFL 529 it was 4.5 µM (inactive). The GI50 in the experiment with Malme-3M is 1.01 µM (active); with NCI-H226, 0.283 µM (active); with NCI-H23, 0.317 µM (active); in the experiment on NCI-H460 it was 0.0344 µM (active); in the experiment with OVCAR-4, 20.8 µM (inactive); in the experiment on OVCAR-5, 2.02 µM (inactive). The GI50 was 1.2 µM (inactive) with OVCAR-8; 0.533 µM (active) in the experiment with SF-295; 2.33 µM (inactive) in the experiment on SK-MEL-28; 0.621 µM (active) with SNB-19; 0.55 µM (active) with UACC-62.
For the molecule `CCOC(=O)/C(C#N)=C/c1[nH]c(C)c(C)c1C`, the GI50 in the experiment on CAKI-1 was > 100 µM (inactive); in the experiment with EKVX, > 100 µM (inactive); in the experiment with HCT-15, over 100 µM; in the experiment on HT-29, > 100 µM (inactive); in the experiment on KM-20L2 it was > 100 µM (inactive); in the experiment with LXFL 529 it was > 100 µM (inactive). Moreover, the GI50 in the experiment on Malme-3M, in the experiment with NCI-H226, in the experiment on NCI-H23, in the experiment with NCI-H460, with OVCAR-4 and in the experiment with OVCAR-5 was > 100 µM (inactive) each time. The GI50 in the experiment with OVCAR-8, in the experiment with SF-295, in the experiment with SNB-19 and in the experiment on UACC-62 was > 100 µM (inactive) in each case.
`O=C(O)c1nc(-c2ccccn2)c(-c2ccccn2)nc1C(=O)O`: the GI50 was 2.92 µM (inactive) in the experiment with CAKI-1; 2.47 µM (inactive) in the experiment with DU-145; 1.88 µM (inactive) in the experiment on EKVX; 0.384 µM with HCT-15; 2.7 µM (inactive) in the experiment with HT-29; 19.1 µM (inactive) in the experiment with Hs-578T. Moreover, the GI50 in the experiment with Malme-3M was 1.66 µM (inactive); with NCI-H226, 1.7 µM (inactive); with NCI-H23, 5.3 µM (inactive); in the experiment on NCI-H460 it was 0.719 µM (active); in the experiment on OVCAR-4, 2 µM (inactive); with OVCAR-5, 3.01 µM (inactive). Besides, the GI50 is 3.44 µM (inactive) in the experiment on OVCAR-8; 2.49 µM (inactive) in the experiment on SF-295; 1.2 µM (inactive) in the experiment on SK-MEL-28; 5.04 µM (inactive) in the experiment with SNB-19; 2.03 µM (inactive) in the experiment on SR; 2.1 µM (inactive) in the experiment on UACC-62.
`O=S(=O)(C1=CC(S(=O)(=O)c2ccccc2)COC1)c1ccccc1` (stereo unspecified): the GI50 with CAKI-1 is > 100 µM (inactive); with EKVX, > 100 µM (inactive); in the experiment on HCT-15 it was over 100 µM; with HT-29 it was > 100 µM (inactive); in the experiment on LXFL 529, > 100 µM (inactive); in the experiment with Malme-3M it was > 100 µM (inactive). Further, the GI50 in the experiment on NCI-H23, in the experiment on NCI-H460, in the experiment with OVCAR-4, with OVCAR-8, in the experiment with SF-295 and with SK-MEL-28 was > 100 µM (inactive) each time. Further, the GI50 in the experiment on SNB-19, in the experiment on SR and in the experiment on UACC-62 was > 100 µM (inactive) throughout.
Regarding `COc1ccc2c3c(c(C(=O)O)oc13)C(CCC(=O)O)CC2` (stereo unspecified), the GI50 with CAKI-1 was > 100 µM (inactive); in the experiment with EKVX, > 100 µM (inactive); in the experiment on HCT-15 it was over 100 µM; with HT-29, > 100 µM (inactive); in the experiment with KM-20L2 it was > 100 µM (inactive); with LXFL 529, > 100 µM (inactive). For the same molecule, the GI50 in the experiment on NCI-H23, with NCI-H460, with OVCAR-4, in the experiment with OVCAR-8, in the experiment on SF-295 and in the experiment with SK-MEL-28 was > 100 µM (inactive) each time. Moreover, the GI50 in the experiment on SNB-19 and with UACC-62 was > 100 µM (inactive) in each case.
Consider `CCCCCCCCCCCCCC(=O)OC1CC(=O)OC1CO` (stereo unspecified), for which the GI50 is 81.1 µM (inactive) in the experiment with CAKI-1; > 100 µM (inactive) in the experiment on EKVX; 18.5 µM with HCT-15; 32.1 µM (inactive) in the experiment on HT-29; 50.7 µM (inactive) with KM-20L2; 89.3 µM (inactive) in the experiment on LXFL 529. Besides, the GI50 is > 100 µM (inactive) in the experiment on Malme-3M; 34.2 µM (inactive) in the experiment on NCI-H460; > 100 µM (inactive) with OVCAR-4; > 100 µM (inactive) in the experiment on OVCAR-5; > 100 µM (inactive) in the experiment with OVCAR-8; 21.5 µM (inactive) in the experiment with SF-295. Moreover, the GI50 with SNB-19 is 32.8 µM (inactive); in the experiment on UACC-62, 19.2 µM (inactive).
As for `COc1cc2c(cc1OCCCC(=O)Nc1cc(C(=O)Nc3cc(C(=O)Nc4cc(C(=O)NCCCN(C)C)n(C)n4)n(C)n3)n(C)n1)N=CC1CCCN1C2=O` (stereo unspecified), the GI50 with CAKI-1 was 18.2 µM (inactive); in the experiment on DU-145 it was 35.4 µM (inactive); with EKVX, > 100 µM (inactive); with HCT-15, 5.69 µM; in the experiment with HT-29 it was 20 µM (inactive); in the experiment with Hs-578T, 39.5 µM (inactive). For the same molecule, the GI50 is 10.8 µM (inactive) in the experiment on Malme-3M; 28.4 µM (inactive) in the experiment on NCI-H226; 26.5 µM (inactive) in the experiment with NCI-H23; 41.4 µM (inactive) in the experiment with NCI-H460; 16.1 µM (inactive) with OVCAR-4; 32.6 µM (inactive) with OVCAR-5. Further, the GI50 in the experiment on OVCAR-8 was 32 µM (inactive); in the experiment on SF-295, 32.5 µM (inactive); in the experiment with SK-MEL-28, 13.4 µM (inactive); with SNB-19, 18.3 µM (inactive); in the experiment with SR it was 2.77 µM (inactive); in the experiment with UACC-62 it was 20.3 µM (inactive).
For the molecule `NCCNCc1c2ccccc2c(CNCCN)c2ccccc12`, the GI50 is 20.2 µM (inactive) in the experiment on EKVX; 38 µM in the experiment on HCT-15; 6.21 µM (inactive) in the experiment on HT-29; 10.3 µM (inactive) with KM-20L2; 5.86 µM (inactive) in the experiment with LXFL 529; 14 µM (inactive) with Malme-3M. Also, the GI50 in the experiment with NCI-H23 was 13.1 µM (inactive); with NCI-H460, 6.97 µM (inactive); in the experiment with OVCAR-4 it was > 10 µM (inactive); in the experiment with OVCAR-5 it was 27.4 µM (inactive); in the experiment with OVCAR-8, 13.2 µM (inactive); in the experiment on SF-295, 17.4 µM (inactive). In addition, the GI50 was > 10 µM (inactive) in the experiment on SK-MEL-28, 4.18 µM (inactive) in the experiment with SR and 22 µM (inactive) in the experiment on UACC-62.
On to `Fc1ccc(C2SCc3nc4ccccc4n32)cc1` (stereo unspecified), for which the GI50 in the experiment with CAKI-1 is 36.8 µM (inactive); in the experiment on EKVX, 58.1 µM (inactive); in the experiment on HCT-15, 34.8 µM; with HT-29, 47.9 µM (inactive); in the experiment with LXFL 529, 34.4 µM (inactive); with Malme-3M, 25.8 µM (inactive). Further, the GI50 is 37.4 µM (inactive) with NCI-H226; 28.9 µM (inactive) with NCI-H23; 34.4 µM (inactive) in the experiment on NCI-H460; 36.3 µM (inactive) in the experiment with OVCAR-4; 21.4 µM (inactive) in the experiment on OVCAR-5; 49 µM (inactive) with OVCAR-8. The GI50 in the experiment with SF-295 was 40.7 µM (inactive); in the experiment with SK-MEL-28, 23.6 µM (inactive); with SNB-19, 6.1 µM (inactive); in the experiment on SR, 27 µM (inactive); in the experiment with UACC-62, > 10 µM (inactive).
